Experiments:
rats = assay: 4-week repeated oral dose toxicity study in rats; format: in vivo
cynomolgus monkeys = assay: 39-week repeated oral dose toxicity study in cynomolgus monkeys; format: in vivo; settings: 10, 30, 100 mg/kg oral, 39 weeks
Procedure: A GLP-compliant 39-week repeated oral dose study was performed in cynomolgus monkeys at dosages of 10, 30, and 100 mg/kg.

[1] = human, in vivo
Procedure: A placebo-controlled repeated oral dose study was performed to examine the safety, pharmacokinetics, and pharmacodynamics of the present compound during repeated oral dose administration in healthy Japanese adult males (subjects).
The oral dosages were 60 mg (step 1) and 120 mg (step 2) per day, and the number of subjects per step was 9 (6 subjects in the present compound group and 3 subjects in the placebo group). The transition from one step to the next was made after confirming safety. The present compound or the placebo was orally administered once daily after breakfast for 7 days.
After administration of the present compound and the placebo, the following items were evaluated in each subject. Safety: vital signs (axillary temperature, blood pressure while seated, and pulse rate while seated), 12-lead electrocardiogram, laboratory tests (hematological test, blood biochemical test, blood coagulation test, urinalysis, and fecal test), and adverse events • Pharmacokinetics: plasma concentration of the unchanged drug and metabolite concentration • Pharmacological activities: PAI-1 activity and t-PA activity

[2] = tested on: chronic-phase chronic myeloid leukemia (CML) patients; assay: Phase II study in combination with TKI in chronic-phase CML patients (4 weeks); format: in vivo, human
Source text: The present compound and a tyrosine kinase inhibitor (hereinafter referred to as “TKI”) were used in combination and repeatedly administered orally to patients with chronic-phase chronic myeloid leukemia (CML patients) to evaluate the safety of the present compound and the effectiveness of the present compound against CML.
Oral administration of the TKI, which is a drug used in combination, was continued for a total of 12 weeks, including the 8-week observation period. The safety analysis set (SAS) and the full analysis set (FAS) each consisted of the 21 patients, and the per protocol set (PPS) consisted of 18 patients.

[3] = tested on: patients with COVID-19 pneumonia (mild to moderate); assay: Effectiveness study for COVID-19 pneumonia (exploratory early phase II study); format: in vivo, human
Source text: The effect of the present compound to prevent the aggravation of COVID-19 pneumonia and its safety were explored.
Occurrence of transition to oxygen supply treatment under mechanical ventilation after the oral administration of the present compound (occurrence of deterioration of oxygenation)
• (a) Survival for 28 days from the start of administration of the present compound • (b) Duration of hospitalization after the start of administration of the present compound • (c) Number of days required for oxygen administration after the start of administration of the present compound (d) Changes in the proportion of lesions in the lung field on chest CT images before and after the administration of the present compound
Occurrence of adverse events after the start of administration of the present compound until the end of observation

[4] = 30, 60, 120, 250 mg/kg/day oral, 4 weeks
[5] = 120 to 180 mg/day oral, 14 days
[6] = after the start of administration, excluding undescribed and discontinued cases
[7] = start of administration to end of observation, 26 patients

Q: For `O=C(Nc1ccc(Cl)cc1C(=O)[O-])c1cccc(-c2cccc3cccnc23)c1.[Na+]` [present compound, sodium 5-chloro-2-({ [3-(quinolin-8-yl)phenyl]carbonyl}amino)benzoate], which “deaths during the administration period” value (rats; [4]) is on record?
A: No deaths

Q: What about the “effect on general condition, body weight, food consumption, ophthalmology, ECG, hematology, urinalysis, necropsy, organ weights” value (rats; [4]) of the same compound?
A: No effect

Q: And the no-observed-adverse-effect level (rats; rats, males and females, 4-week repeated oral dose)?
A: 250 mg/kg/day

Q: And the “deaths during the administration period” value (cynomolgus monkeys)?
A: No deaths

Q: What about the “effect on general condition, body weight, food consumption, ophthalmology, ECG, hematology, urinalysis, necropsy, organ weights” value (cynomolgus monkeys) of the same compound?
A: No effect

Q: And the “AUC on day 7 compared with day 1” value [1]?
A: increased

Q: What about the “Tmax, t½ 0-24h, and Cmax′” value [1] of the same compound?
A: not affected by repeated administration

Q: And the “cumulative DMR achievement rate (MR 4.5, BCR-ABL^IS≤0.0032%)” value ([2]; 120 mg once daily 4 weeks in combination with TKI)?
A: increased

Q: What about the “adverse events causally related to the investigational drug” value ([2]; 120 mg once daily 4 weeks with TKI, 21 patients (SAS)) of the same compound?
A: No adverse events

Q: What about the “deterioration of oxygenation requiring mechanical ventilation” value [3, 5] of the same compound?
A: no cases

Q: And the “number of days required for oxygen administration after the start of administration” value [3, 5]?
A: gradually decreased

Q: What about the “survival for 28 days from the start of administration” value [3, 5] of the same compound?
A: all cases survived

Q: And the “adverse events in patients concomitantly treated with Remdesivir, Avigan, inhaled steroid or antiplatelet agent” value ([3]; Remdesivir 8, Avigan 5, inhaled steroid 22, antiplatelet agent 5 cases)?
A: no adverse events requiring treatment

Q: What about the “Number of cases with duration of hospitalization 8 to 12 days” value [3, 6] of the same compound?
A: 5

Q: What about the “Number of cases with duration of hospitalization 13 to 17 days” value [3, 6] of the same compound?
A: 12

Q: And the “Number of cases with duration of hospitalization 18 to 22 days” value [3, 6]?
A: 4

Q: What about the “number of cases, oxygen dosage 0 L/day” value ([3]; day 1) of the same compound?
A: 3

Q: And the “number of cases, oxygen dosage 2 or less L/day” value ([3]; day 1)?
A: 12

Q: And the “number of cases, oxygen dosage 5 or more L/day” value ([3]; day 1)?
A: 3

Q: And the “number of cases, oxygen dosage More than 2 less than 5 L/day” value ([3]; day 1)?
A: 5

Q: What about the “number of cases, oxygen dosage 0 L/day” value ([3]; day 2) of the same compound?
A: 3

Q: And the “number of cases, oxygen dosage 2 or less L/day” value ([3]; day 2)?
A: 12

Q: And the “number of cases, oxygen dosage 5 or more L/day” value ([3]; day 2)?
A: 2

Q: And the “number of cases, oxygen dosage More than 2 less than 5 L/day” value ([3]; day 2)?
A: 6

Q: And the “number of cases, oxygen dosage 0 L/day” value ([3]; day 3)?
A: 4

Q: What about the “number of cases, oxygen dosage 2 or less L/day” value ([3]; day 3) of the same compound?
A: 13

Q: What about the “number of cases, oxygen dosage 5 or more L/day” value ([3]; day 3) of the same compound?
A: 0

Q: What about the “number of cases, oxygen dosage More than 2 less than 5 L/day” value ([3]; day 3) of the same compound?
A: 6

Q: What about the “number of cases, oxygen dosage 0 L/day” value ([3]; day 4) of the same compound?
A: 7

Q: And the “number of cases, oxygen dosage 2 or less L/day” value ([3]; day 4)?
A: 11

Q: What about the “number of cases, oxygen dosage 5 or more L/day” value ([3]; day 4) of the same compound?
A: 0

Q: And the “number of cases, oxygen dosage More than 2 less than 5 L/day” value ([3]; day 4)?
A: 5

Q: And the “number of cases, oxygen dosage 0 L/day” value ([3]; day 5)?
A: 7

Q: What about the “number of cases, oxygen dosage 2 or less L/day” value ([3]; day 5) of the same compound?
A: 12

Q: And the “number of cases, oxygen dosage 5 or more L/day” value ([3]; day 5)?
A: 0

Q: And the “number of cases, oxygen dosage More than 2 less than 5 L/day” value ([3]; day 5)?
A: 4

Q: What about the “number of cases, oxygen dosage 0 L/day” value ([3]; day 6) of the same compound?
A: 10

Q: What about the “number of cases, oxygen dosage 2 or less L/day” value ([3]; day 6) of the same compound?
A: 9

Q: And the “number of cases, oxygen dosage 5 or more L/day” value ([3]; day 6)?
A: 0

Q: What about the “number of cases, oxygen dosage More than 2 less than 5 L/day” value ([3]; day 6) of the same compound?
A: 4

Q: And the “number of cases, oxygen dosage 0 L/day” value ([3]; day 7)?
A: 10

Q: What about the “number of cases, oxygen dosage 2 or less L/day” value ([3]; day 7) of the same compound?
A: 9

Q: And the “number of cases, oxygen dosage 5 or more L/day” value ([3]; day 7)?
A: 0

Q: And the “number of cases, oxygen dosage More than 2 less than 5 L/day” value ([3]; day 7)?
A: 4

Q: What about the “number of cases, oxygen dosage 0 L/day” value ([3]; day 8) of the same compound?
A: 12

Q: And the “number of cases, oxygen dosage 2 or less L/day” value ([3]; day 8)?
A: 10

Q: And the “number of cases, oxygen dosage 5 or more L/day” value ([3]; day 8)?
A: 0

Q: And the “number of cases, oxygen dosage More than 2 less than 5 L/day” value ([3]; day 8)?
A: 1

Q: What about the “number of cases, oxygen dosage 0 L/day” value ([3]; day 9) of the same compound?
A: 13

Q: What about the “number of cases, oxygen dosage 2 or less L/day” value ([3]; day 9) of the same compound?
A: 9

Q: And the “number of cases, oxygen dosage 5 or more L/day” value ([3]; day 9)?
A: 0

Q: And the “number of cases, oxygen dosage More than 2 less than 5 L/day” value ([3]; day 9)?
A: 1

Q: What about the “number of cases, oxygen dosage 0 L/day” value ([3]; day 10) of the same compound?
A: 17

Q: What about the “number of cases, oxygen dosage 2 or less L/day” value ([3]; day 10) of the same compound?
A: 6

Q: What about the “number of cases, oxygen dosage 5 or more L/day” value ([3]; day 10) of the same compound?
A: 0

Q: And the “number of cases, oxygen dosage More than 2 less than 5 L/day” value ([3]; day 10)?
A: 0

Q: What about the “number of cases, oxygen dosage 0 L/day” value ([3]; day 11) of the same compound?
A: 18

Q: And the “number of cases, oxygen dosage 2 or less L/day” value ([3]; day 11)?
A: 5

Q: And the “number of cases, oxygen dosage 5 or more L/day” value ([3]; day 11)?
A: 0

Q: And the “number of cases, oxygen dosage More than 2 less than 5 L/day” value ([3]; day 11)?
A: 0

Q: And the “number of cases, oxygen dosage 0 L/day” value ([3]; day 12)?
A: 20

Q: What about the “number of cases, oxygen dosage 2 or less L/day” value ([3]; day 12) of the same compound?
A: 3

Q: What about the “number of cases, oxygen dosage 5 or more L/day” value ([3]; day 12) of the same compound?
A: 0

Q: What about the “number of cases, oxygen dosage More than 2 less than 5 L/day” value ([3]; day 12) of the same compound?
A: 0

Q: What about the “number of cases, oxygen dosage 0 L/day” value ([3]; day 13) of the same compound?
A: 21

Q: What about the “number of cases, oxygen dosage 2 or less L/day” value ([3]; day 13) of the same compound?
A: 2

Q: And the “number of cases, oxygen dosage 5 or more L/day” value ([3]; day 13)?
A: 0

Q: What about the “number of cases, oxygen dosage More than 2 less than 5 L/day” value ([3]; day 13) of the same compound?
A: 0

Q: What about the “number of cases, oxygen dosage 0 L/day” value ([3]; day 14) of the same compound?
A: 22

Q: What about the “number of cases, oxygen dosage 2 or less L/day” value ([3]; day 14) of the same compound?
A: 1

Q: And the “number of cases, oxygen dosage 5 or more L/day” value ([3]; day 14)?
A: 0

Q: What about the “number of cases, oxygen dosage More than 2 less than 5 L/day” value ([3]; day 14) of the same compound?
A: 0

Q: What about the “number of cases with reduced proportion of lesions in the lung field on chest CT images” value ([3]; out of 18 cases, administration for 14 days) of the same compound?
A: 13 cases

Q: What about the “adverse events related to the present compound and requiring treatment” value ([3]; start of administration to end of observation) of the same compound?
A: no adverse events that were related to the present compound and that required treatment

Q: And the “number of adverse events” value [3, 7]?
A: 33

Q: And the “number of patients with adverse events” value [3, 7]?
A: 17 patients

— US20230355605A1, “DRUG FOR ENHANCING FIBRINOLYTIC SYSTEM, AND USE THEREFOR” (priority 2020, published 2023)
